Experimental data: EP2970215B1, “PYRROLIDINE DERIVATIVES, PHARMACEUTICAL COMPOSITIONS CONTAINING THEM, AND THEIR USE IN THERAPY” (AbbVie Deutschland GmbH & Co. KG, priority 2013, dated 2014)

Biological target: T1, human GlyT1c transporter (Homo sapiens, UniProt P48067)
T1 construct: expressed in transfected cells; host or cells: CHO cells (recombinant; line hGlyT1c_5_CHO is named for the uptake assay)
T1 sequence (P48067 1-706): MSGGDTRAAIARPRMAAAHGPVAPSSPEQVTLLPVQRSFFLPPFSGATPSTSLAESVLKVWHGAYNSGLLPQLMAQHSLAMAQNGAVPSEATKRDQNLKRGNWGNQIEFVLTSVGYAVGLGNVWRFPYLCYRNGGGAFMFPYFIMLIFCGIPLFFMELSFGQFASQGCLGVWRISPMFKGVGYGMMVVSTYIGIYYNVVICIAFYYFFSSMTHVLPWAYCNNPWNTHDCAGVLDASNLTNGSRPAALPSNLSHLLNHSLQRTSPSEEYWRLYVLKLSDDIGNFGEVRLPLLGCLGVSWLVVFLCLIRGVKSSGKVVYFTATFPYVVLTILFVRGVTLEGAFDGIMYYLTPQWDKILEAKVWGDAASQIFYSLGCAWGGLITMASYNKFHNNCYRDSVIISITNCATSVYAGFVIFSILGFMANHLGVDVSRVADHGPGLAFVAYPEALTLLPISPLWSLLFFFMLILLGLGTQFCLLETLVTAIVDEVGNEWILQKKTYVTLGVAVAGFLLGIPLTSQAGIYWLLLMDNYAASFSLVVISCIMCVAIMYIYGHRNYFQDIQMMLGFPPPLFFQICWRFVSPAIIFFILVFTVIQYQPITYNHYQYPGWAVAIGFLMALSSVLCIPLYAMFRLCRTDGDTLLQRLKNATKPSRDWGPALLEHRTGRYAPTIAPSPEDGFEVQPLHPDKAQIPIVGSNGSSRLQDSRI
Assay: Radioligand binding assay using recombinant CHO cell membranes expressing human GlyT1
Conditions: radioligand binding to human GlyT1c transporter-expressing membranes
From the text: 2. Radioligand binding assays using recombinant CHO cell membranes expressing human GlyT1: […]

| SMILES | Ki |
| --- | --- |
| CCCCOC(=O)O[C@@H]1CN(S(=O)(=O)c2cn(C)cn2)C[C@H]1c1ccc(F)cc1 [Example 697, butyl (3S,4R)-4-(4-fluorophenyl)-1-[(1-methyl-1H-imidazol-4-yl)sulfonyl]pyrrolidin-3-yl carbonate] | ≤ 1000 nM |
| Cn1cnc(S(=O)(=O)N2C[C@H](NC(=O)CCCC(F)(F)F)[C@@H](c3ccc(F)cc3)C2)c1 [Example 698, 5,5,5-trifluoro-N-{(3R,4S)-4-(4-fluorophenyl)-1-[(1-methyl-1H-imidazol-4-yl)sulfonyl]pyrrolidin-3-yl}pentanamide] | ≤ 1000 nM |
| CCCC(F)(F)C(=O)N[C@H]1CN(S(=O)(=O)c2cn(C)cn2)C[C@@H]1c1ccc(F)cc1 [Example 700, 2,2-difluoro-N-{(3R,4S)-4-(4-fluorophenyl)-1-[(1-methyl-1H-imidazol-4-yl)sulfonyl]pyrrolidin-3-yl}pentanamide] | ≤ 10000 nM |
| Cn1cnc(S(=O)(=O)N2C[C@H](NC(=O)Nc3ccc(Cl)cc3)[C@@H](c3ccc(F)cc3)C2)c1 [Example 701, 1-(4-chlorophenyl)-3-{(3R,4S)-4-(4-fluorophenyl)-1-[(1-methyl-1H-imidazol-4-yl)sulfonyl]pyrrolidin-3-yl}urea] | ≤ 1000 nM |
| Cn1cnc(S(=O)(=O)N2C[C@H](NC(=O)Nc3ccccc3F)[C@@H](c3ccc(F)cc3)C2)c1 [Example 702, 1-(2-fluorophenyl)-3-{(3R,4S)-4-(4-fluorophenyl)-1-[(1-methyl-1H-imidazol-4-yl)sulfonyl]pyrrolidin-3-yl}urea] | ≤ 10000 nM |
| Cn1cnc(S(=O)(=O)N2C[C@H](NC(=O)Nc3cccc(F)c3)[C@@H](c3ccc(F)cc3)C2)c1 [Example 703, 1-(3-fluorophenyl)-3-{(3R,4S)-4-(4-fluorophenyl)-1-[(1-methyl-1H-imidazol-4-yl)sulfonyl]pyrrolidin-3-yl}urea] | ≤ 1000 nM |
| Cn1cnc(S(=O)(=O)N2C[C@H](NC(=O)Nc3ccc(F)cc3)[C@@H](c3ccc(F)cc3)C2)c1 [Example 704, 1-(4-fluorophenyl)-3-{(3R,4S)-4-(4-fluorophenyl)-1-[(1-methyl-1H-imidazol-4-yl)sulfonyl]pyrrolidin-3-yl}urea] | ≤ 1000 nM |
| Cn1cnc(S(=O)(=O)N2C[C@H](NC(=O)NCc3ccccc3Cl)[C@@H](c3ccc(F)cc3)C2)c1 [Example 705, 1-(2-chlorobenzyl)-3-{(3R,4S)-4-(4-fluorophenyl)-1-[(1-methyl-1H-imidazol-4-yl)sulfonyl]pyrrolidin-3-yl}urea] | ≤ 1000 nM |
| Cn1cnc(S(=O)(=O)N2C[C@H](NCC3CCC(C(F)(F)F)CC3)[C@@H](c3ccc(F)cc3)C2)c1 (stereo partly drawn) [Example 707, (3R,4S)-4-(4-fluorophenyl)-1-[(1-methyl-1H-imidazol-4-yl)sulfonyl]-N-{[4-(trifluoromethyl)cyclohexyl]methyl}pyrrolidin-3-amine] | ≤ 1000 nM |
| CCCCC(F)(F)C(=O)N[C@H]1CN(S(=O)(=O)c2cn(C)cn2)C[C@@H]1c1ccc(F)cc1 [Example 708, 2,2-difluoro-N-{(3R,4S)-4-(4-fluorophenyl)-1-[(1-methyl-1H-imidazol-4-yl)sulfonyl]pyrrolidin-3-yl}hexanamide] | ≤ 10000 nM |
| Cn1cnc(S(=O)(=O)N2CC(Nc3ccc(Cl)c(C(F)(F)F)c3)C(c3ncco3)C2)c1 (stereo not shown) [Example 710, N-[4-chloro-3-(trifluoromethyl)phenyl]-1-[(1-methyl-1H-imidazol-4-yl)sulfonyl]-4-(1,3-oxazol-2-yl)pyrrolidin-3-amine] | ≤ 1000 nM |
| CCCCOc1cc(N[C@H]2CN(S(=O)(=O)c3cn(C)cn3)C[C@@H]2c2ccc(F)cc2)ncn1 [Example 717, 6-butoxy-N-{(3R,4S)-4-(4-fluorophenyl)-1-[(1-methyl-1H-imidazol-4-yl)sulfonyl]pyrrolidin-3-yl}pyrimidin-4-amine] | ≤ 100 nM |
| Cn1cnc(S(=O)(=O)N2C[C@H](NCCCCC(F)(F)F)[C@@H](c3ccc(F)cc3)C2)c1 [Example 732, (3R,4S)-4-(4-fluorophenyl)-1-[(1-methyl-1H-imidazol-4-yl)sulfonyl]-N-(5,5,5-trifluoropentyl)pyrrolidin-3-amine] | ≤ 100 nM |
| CCCCC(F)(F)CN[C@H]1CN(S(=O)(=O)c2cn(C)cn2)C[C@@H]1c1ccc(F)cc1 [Example 733, (3R,4S)-N-(2,2-difluorohexyl)-4-(4-fluorophenyl)-1-[(1-methyl-1H-imidazol-4-yl)sulfonyl]pyrrolidin-3-amine] | ≤ 10 nM |
| CCCC(F)(F)CN[C@H]1CN(S(=O)(=O)c2cn(C)cn2)C[C@@H]1c1ccc(F)cc1 [Example 734, (3R,4S)-N-(2,2-difluoropentyl)-4-(4-fluorophenyl)-1-[(1-methyl-1H-imidazol-4-yl)sulfonyl]pyrrolidin-3-amine] | ≤ 100 nM |
| Cn1cnc(S(=O)(=O)N2C[C@H](NC(=O)CCCC(C)(F)F)[C@@H](c3ccc(F)cc3)C2)c1 [Example 735, 5,5-difluoro-N-{(3R,4S)-4-(4-fluorophenyl)-1-[(1-methyl-1H-imidazol-4-yl)sulfonyl]pyrrolidin-3-yl}hexanamide] | ≤ 10000 nM |
| Cn1cnc(S(=O)(=O)N2C[C@H](Nc3cc(F)ccn3)[C@@H](c3ccc(F)cc3)C2)c1 [Example 736, 4-fluoro-N-{(3R,4S)-4-(4-fluorophenyl)-1-[(1-methyl-1H-imidazol-4-yl)sulfonyl]pyrrolidin-3-yl}pyridin-2-amine] | ≤ 1000 nM |

Further lines, results first:

| Ki | SMILES |
| --- | --- |
| ≤ 10000 nM | Cn1cnc(S(=O)(=O)N2C[C@H](Nc3cc(Cl)c(Cl)cn3)[C@@H](c3ccc(F)cc3)C2)c1 [Example 706, 4,5-dichloro-N-{(3R,4S)-4-(4-fluorophenyl)-1-[(1-methyl-1H-imidazol-4-yl)sulfonyl]pyrrolidin-3-yl}pyridin-2-amine] |
| ≤ 1000 nM | CCOc1cc(N[C@H]2CN(S(=O)(=O)c3cn(C)cn3)C[C@@H]2c2ccc(F)cc2)ncn1 [Example 715, 6-ethoxy-N-{(3R,4S)-4-(4-fluorophenyl)-1-[(1-methyl-1H-imidazol-4-yl)sulfonyl]pyrrolidin-3-yl}pyrimidin-4-amine] |
| ≤ 100 nM | CC(C)COc1cc(N[C@H]2CN(S(=O)(=O)c3cn(C)cn3)C[C@@H]2c2ccc(F)cc2)ncn1 [Example 718, N-{(3R,4S)-4-(4-fluorophenyl)-1-[(1-methyl-1H-imidazol-4-yl)sulfonyl]pyrrolidin-3-yl}-6-(2-methylpropoxy)pyrimidin-4-amine] |
| ≤ 100 nM | Cn1cnc(S(=O)(=O)N2C[C@H](Nc3cc(OC4CCCC4)ncn3)[C@@H](c3ccc(F)cc3)C2)c1 [Example 720, 6-(cyclopentyloxy)-N-{(3R,4S)-4-(4-fluorophenyl)-1-[(1-methyl-1H-imidazol-4-yl)sulfonyl]pyrrolidin-3-yl}pyrimidin-4-amine] |
| ≤ 100 nM | Cn1cnc(S(=O)(=O)N2C[C@H](Nc3cc(OC4CCCCC4)ncn3)[C@@H](c3ccc(F)cc3)C2)c1 [Example 721, 6-(cyclohexyloxy)-N-{(3R,4S)-4-(4-fluorophenyl)-1-[(1-methyl-1H-imidazol-4-yl)sulfonyl]pyrrolidin-3-yl}pyrimidin-4-amine] |
| ≤ 10 nM | Cn1cnc(S(=O)(=O)N2C[C@H](Nc3cc(-c4ccccc4)ncn3)[C@@H](c3ccc(F)cc3)C2)c1 [Example 722, N-{(3R,4S)-4-(4-fluorophenyl)-1-[(1-methyl-1H-imidazol-4-yl)sulfonyl]pyrrolidin-3-yl}-6-phenylpyrimidin-4-amine] |
| ≤ 100 nM | Cc1ccccc1-c1cc(N[C@H]2CN(S(=O)(=O)c3cn(C)cn3)C[C@@H]2c2ccc(F)cc2)ncn1 [Example 723, N-{(3R,4S)-4-(4-fluorophenyl)-1-[(1-methyl-1H-imidazol-4-yl)sulfonyl]pyrrolidin-3-yl}-6-(2-methylphenyl)pyrimidin-4-amine] |
| ≤ 100 nM | Cc1cccc(-c2cc(N[C@H]3CN(S(=O)(=O)c4cn(C)cn4)C[C@@H]3c3ccc(F)cc3)ncn2)c1 [Example 724, N-{(3R,4S)-4-(4-fluorophenyl)-1-[(1-methyl-1H-imidazol-4-yl)sulfonyl]pyrrolidin-3-yl}-6-(3-methylphenyl)pyrimidin-4-amine] |
| ≤ 100 nM | Cn1cnc(S(=O)(=O)N2C[C@H](Nc3cc(-c4ccccc4F)ncn3)[C@@H](c3ccc(F)cc3)C2)c1 [Example 726, 6-(2-fluorophenyl)-N-{(3R,4S)-4-(4-fluorophenyl)-1-[(1-methyl-1H-imidazol-4-yl)sulfonyl]pyrrolidin-3-yl}pyrimidin-4-amine] |
| ≤ 10 nM | Cn1cnc(S(=O)(=O)N2C[C@H](Nc3cc(-c4cccc(F)c4)ncn3)[C@@H](c3ccc(F)cc3)C2)c1 [Example 727, 6-(3-fluorophenyl)-N-{(3R,4S)-4-(4-fluorophenyl)-1-[(1-methyl-1H-imidazol-4-yl)sulfonyl]pyrrolidin-3-yl}pyrimidin-4-amine] |
| ≤ 10 nM | Cn1cnc(S(=O)(=O)N2C[C@H](Nc3cc(-c4cccc(Cl)c4)ncn3)[C@@H](c3ccc(F)cc3)C2)c1 [Example 729, 6-(3-chlorophenyl)-N-{(3R,4S)-4-(4-fluorophenyl)-1-[(1-methyl-1H-imidazol-4-yl)sulfonyl]pyrrolidin-3-yl}pyrimidin-4-amine] |
